The record followed here is US7807181B2, “Neisseria mutants, lipooligosaccharides and immunogenic compositions” (Emory University, priority 2002, dated 2010).

The target of assay [1] is T1, CD14/TLR4-MD-2 receptor complex (Homo sapiens, UniProt O00206+Q9Y6Y9).
T1 construct: endogenous in cells
As to the kind of experiment: Activation of receptor complex by synthetic KDO. Particulars: dose ranges from 10 ng-100 mg; data not shown. The class given is cell-based. From the text:
Acid hydrolysis might affect lipid A phosphate head groups and contribute to attenuation.

The subject of assay [2] is Psf protein (arabinose 5-phosphate isomerase). As to the kind of experiment: Colorimetric assay for keto-pentoses with purified Psf protein. The class given is biochemical, N. meningitidis. Particulars: 37° C., 10 min, 100 mM Tris-HCl pH 7.5, A540. From the text:
Psf is the arabinose 5-phosphate isomerase of N. meningitidis. […] To determine if Psf had isomerase activity, a colorimetric assay for keto-pentoses (Bigham et al., 1984) was first conducted using the purified Psf protein, which contained a C-terminal 6×His tag (FIG. 9A). […] The reaction was dependent on the concentration of Psf protein. […] The NMR chemical shifts of the phosphoryl groups of arabinose 5-P and ribulose 5-P are different, thus ^31P NMR can monitor the interconversion between the two sugars. […] The LOS defect in the psf mutant, but not the kdsB mutant, can be complemented by (exogenous) supplementation of arabinose in the growth medium (FIG. 9B), consistent with the identification of the Psf protein as an arabinose 5-phosphate isomerase.
The procedure of Dische and Borenfreund (Dische and Borenfreund, 1951, as modified by Bigham (Bigham, 1984) was used to determine the presence of ketopentoses. Briefly, enzyme was incubated at 37° C. for 10 min in the presence of various aldopentoses (ribose 5-phosphate, erythrose 4-phosphate, glucose 6-phosphate, and arabinose) and 100 mM Tris-HCl (pH 7.5) buffer and assayed as follows. A 250 μl aliquot of the reaction solution was quenched with the addition of 50 μl of a 1.5% cysteine solution followed immediately by 1.5 ml of concentrated H2S04. A 50 μl aliquot of 0.12% carbazole in 95% ethanol was then added, and the solution was heated at 37° C. for 30 min. The absorbance was read at 540 nm. As reported by Bigham et al. (1984), the conversion of 1 μmol of A5P to 1 μmol of Ru5P gave an ΔA of 8.2.

Assay [3] concerns differentiated U937 and THP-1 human macrophage-like cells. As to the kind of experiment: Cytokine (TNFa, IL-1b, IL-8, IL-10) induction in macrophage-like cells stimulated with endotoxin. The class given is cell-based. Particulars: 2 mg/ml added during the induction assay. From the text:
The meningococcal mutant LOS preparations were used to investigate the role of endotoxin structure on the activation of macrophages via the CD14/TLR4-MD-2 receptor complex. Endotoxins were quantified and standardized based on lipid A content. Cytokine (TNFa, IL-1b, IL-8 or IL-10) induction, nitric oxide and reactive oxygen species (ROS) release from differentiated U937 and THP-1 human macrophage-like cells or RAW264.7 murine macrophages stimulated with endotoxin (0.56 pmole/ml, approximately 1 ng/ml) was studied.
Alternatively, LOS from a genetically-defined mutants of the serogroup B N. meningitidis strain NMB (encapsulated, L2 immunotype) (listed in Table I) were initially extracted by the phenol-water method (21). Residual membrane phospholipids (unsaturated fatty acyl residues C18:0) were removed by repeated extraction of the dry LOS samples with 9:1 ethanol:water. The expected LOS fatty acyl components of 3-OHC12:0, 3-OHC14:0 and C12:0 and the absence of membrane phospholipids was assessed by Mass spectroscopy (GC-MS). LOS preparations were examined by SDS-PAGE (22), quantitated and standardized based on the number of lipid A molecules per sample (23). […] The resulting methyl b-trimethylsilylmyristate was identified and quantified by GC-MS analysis. […]

T1 sequence (O00206 24-839): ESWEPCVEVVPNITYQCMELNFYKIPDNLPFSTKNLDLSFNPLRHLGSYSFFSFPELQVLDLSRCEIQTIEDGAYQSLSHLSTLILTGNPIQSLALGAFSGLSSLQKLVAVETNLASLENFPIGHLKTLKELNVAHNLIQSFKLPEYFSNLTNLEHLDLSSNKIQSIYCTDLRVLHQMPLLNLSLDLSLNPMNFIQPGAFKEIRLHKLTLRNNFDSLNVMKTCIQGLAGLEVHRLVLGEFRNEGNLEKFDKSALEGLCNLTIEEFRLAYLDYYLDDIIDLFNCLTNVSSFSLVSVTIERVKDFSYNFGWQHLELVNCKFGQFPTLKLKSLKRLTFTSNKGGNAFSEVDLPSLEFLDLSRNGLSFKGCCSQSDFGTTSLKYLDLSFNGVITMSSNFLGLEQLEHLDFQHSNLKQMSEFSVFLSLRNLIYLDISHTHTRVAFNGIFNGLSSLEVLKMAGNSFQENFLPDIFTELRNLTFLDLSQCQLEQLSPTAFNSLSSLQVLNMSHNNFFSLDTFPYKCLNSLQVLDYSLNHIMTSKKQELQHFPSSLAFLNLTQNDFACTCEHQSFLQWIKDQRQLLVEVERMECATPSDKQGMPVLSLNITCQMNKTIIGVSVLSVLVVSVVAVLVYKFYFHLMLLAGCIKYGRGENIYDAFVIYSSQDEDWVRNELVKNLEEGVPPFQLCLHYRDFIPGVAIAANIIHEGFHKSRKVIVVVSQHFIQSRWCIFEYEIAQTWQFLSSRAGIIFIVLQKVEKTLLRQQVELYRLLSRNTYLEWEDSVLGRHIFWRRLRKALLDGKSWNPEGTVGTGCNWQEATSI
T1 sequence (Q9Y6Y9 19-160): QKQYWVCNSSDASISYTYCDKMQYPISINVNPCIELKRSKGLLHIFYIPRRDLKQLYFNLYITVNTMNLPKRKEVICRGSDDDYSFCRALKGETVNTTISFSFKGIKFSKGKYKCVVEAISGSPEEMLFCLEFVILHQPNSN

In the case of `O=C(O)C(=O)CC(O)C(O)C(O)C(O)CO` (stereo not drawn) [Synthetic KDO, 2-keto-3-deoxyoctonic acid], in assay [1], the “activation of the CD14/TLR4-MD-2 receptor complex” value was “did not activate”.

As for `O=C[C@@H](O)[C@H](O)[C@H](O)CO` [arabinose], the “substrate for the Psf protein” value in assay [2] is recorded as “did not serve as substrates”.

As for `O=C[C@H](O)[C@H](O)COP(=O)(O)O` [erythrose 4-phosphate], the “substrate for the Psf protein” value in assay [2] is “did not serve as substrates”. As for `O=C[C@H](O)[C@@H](O)[C@H](O)[C@H](O)COP(=O)(O)O` [glucose 6-phosphate], in assay [2], the “substrate for the Psf protein” value was “did not serve as substrates”.

On to `O=C[C@H](O)[C@H](O)[C@H](O)COP(=O)(O)O` [ribose 5-phosphate], for which the “substrate for the Psf protein” value in assay [2] is “did not serve as substrates”.

Turning to polymyxin B, the “effect on meningococcal LOS-induced cytokine release” value in assay [3] was “neutralized”.
